# Assay results reported in ChEMBL document CHEMBL1201862, “PubChem BioAssay data set” (2004).
#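 Method: 48-hour compound exposure of cells in 96-well plates, five concentrations, linear interpolation of endpoints. GI50: concentration for 50% inhibition of growth.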 Active and inactive are the calls of the source. No stated cut-off is given here; in the data, active = GI50 up to about 1.1 µM and inactive = higher.
# How the values were obtained:
# Assay in all cases: inhibition of tumour cell growth, NCI panel, 48 h
# K562 = test system: K562
# HL-60 = test system: HL-60
# RPMI-8226 = test system: RPMI-8226
# MOLT-4 = test system: MOLT-4
# SF-539 = test system: SF-539
# SK-OV-3 = test system: SK-OV-3
# KM12 = test system: KM12
# NCI-H460 = test system: NCI-H460
# HT-29 = test system: HT-29
# MCF7 = test system: MCF7
# SK-MEL-2 = test system: SK-MEL-2
# IGROV-1 = test system: IGROV-1
# SK-MEL-5 = test system: SK-MEL-5
# MDA-MB-435 = test system: MDA-MB-435
# UACC-257 = test system: UACC-257
# ACHN = test system: ACHN
# SR = test system: SR
# HCC 2998 = test system: HCC 2998
# SF-268 = test system: SF-268
# Malme-3M = test system: Malme-3M
SMILES,GI50 (K562),GI50 (HL-60),GI50 (RPMI-8226),GI50 (MOLT-4),GI50 (SF-539),GI50 (SK-OV-3),GI50 (KM12),GI50 (NCI-H460),GI50 (HT-29),GI50 (MCF7),GI50 (SK-MEL-2),GI50 (IGROV-1),GI50 (SK-MEL-5),GI50 (MDA-MB-435),GI50 (UACC-257),GI50 (ACHN),GI50 (SR),GI50 (HCC 2998),GI50 (SF-268),GI50 (Malme-3M)
CC(C)(Oc1ccc(-c2cccc3ccccc23)cc1)C(=O)O,1.3 µM (inactive),3.86 µM (inactive),> 100 µM (inactive),> 100 µM (inactive),> 100 µM (inactive),> 100 µM (inactive),97.7 µM (inactive),> 100 µM (inactive),> 100 µM (inactive),> 100 µM (inactive),> 100 µM (inactive),> 100 µM (inactive),99.5 µM (inactive),> 100 µM (inactive),> 100 µM (inactive),> 100 µM (inactive),> 100 µM (inactive),> 100 µM (inactive),> 100 µM (inactive),> 100 µM (inactive)
c1ccc(CSc2nc(N3CCOCC3)c3cn[nH]c3n2)cc1,16.2 µM (inactive),36.6 µM (inactive),7.85 µM (inactive),22.2 µM (inactive),21 µM (inactive),25 µM (inactive),13.3 µM (inactive),17.8 µM (inactive),30.8 µM (inactive),23.1 µM (inactive),16.6 µM (inactive),10.2 µM (inactive),15.8 µM (inactive),17.5 µM (inactive),15 µM (inactive),17.2 µM (inactive),10.5 µM (inactive),23.6 µM (inactive),20.4 µM (inactive),14.1 µM (inactive)
CCOC(=O)c1nc2cc(F)c(N3CCOCC3)cc2[nH]c1=O,> 100 µM (inactive),47.5 µM (inactive),> 100 µM (inactive),> 100 µM (inactive),> 100 µM (inactive),> 100 µM (inactive),> 100 µM (inactive),> 100 µM (inactive),> 100 µM (inactive),> 100 µM (inactive),> 100 µM (inactive),80.9 µM (inactive),> 100 µM (inactive),> 100 µM (inactive),> 100 µM (inactive),> 100 µM (inactive),36.3 µM (inactive),> 100 µM (inactive),> 100 µM (inactive),> 100 µM (inactive)
CCOC(=O)C(=CNc1ccc(N(C2=NCC(C)S2)c2ccc(F)c(Cl)c2)cc1)C(=O)OCC (stereo unspecified),44.1 µM (inactive),24.7 µM (inactive),21.3 µM (inactive),19.1 µM (inactive),25.6 µM (inactive),21.9 µM (inactive),18.7 µM (inactive),23.6 µM (inactive),18.1 µM (inactive),12.8 µM (inactive),20.4 µM (inactive),20.5 µM (inactive),18.7 µM (inactive),24.1 µM (inactive),17.1 µM (inactive),18.5 µM (inactive),21.8 µM (inactive),15.2 µM (inactive),22.9 µM (inactive),20.8 µM (inactive)
Cc1cccc2c1CC(C1OC(=O)c3c(C)cccc31)C2=O (stereo unspecified),> 100 µM (inactive),> 100 µM (inactive),88.5 µM (inactive),> 100 µM (inactive),> 100 µM (inactive),> 100 µM (inactive),> 100 µM (inactive),> 100 µM (inactive),> 100 µM (inactive),> 100 µM (inactive),> 100 µM (inactive),> 100 µM (inactive),> 100 µM (inactive),> 100 µM (inactive),> 100 µM (inactive),> 100 µM (inactive),> 100 µM (inactive),> 100 µM (inactive),> 100 µM (inactive),> 100 µM (inactive)
NC(=O)C(=O)n1ncc(Cl)c(Cl)c1=O,9.46 µM (inactive),5.26 µM (inactive),11.7 µM (inactive),3.59 µM (inactive),40.2 µM (inactive),> 100 µM (inactive),34.1 µM (inactive),74.8 µM (inactive),27.5 µM (inactive),57.3 µM (inactive),23.8 µM (inactive),> 56.6 µM (inactive),18.3 µM (inactive),> 100 µM (inactive),34 µM (inactive),24.4 µM (inactive),19.2 µM (inactive),25.8 µM (inactive),46 µM (inactive),17.5 µM (inactive)
CS(=O)(=O)OCCN(CCOS(C)(=O)=O)c1ccc(/C=N/c2cccc(Cl)c2)cc1,23.5 µM (inactive),2.45 µM (inactive),3.85 µM (inactive),0.286 µM (active),3.68 µM (inactive),0.561 µM (active),13.4 µM (inactive),0.269 µM (active),2.69 µM (inactive),10 µM (inactive),23.8 µM (inactive),15.5 µM (inactive),6.43 µM (inactive),12.2 µM (inactive),2.84 µM (inactive),0.181 µM (active),0.0537 µM (active),2.7 µM (inactive),7.55 µM (inactive),12.4 µM (inactive)
COc1cc(/C=C2\C(=O)N(c3ccccc3)C(c3ccccc3)S2(=O)=O)cc(OC)c1OC (stereo unspecified),27 µM (inactive),7.36 µM (inactive),17.2 µM (inactive),34 µM (inactive),45.1 µM (inactive),62.7 µM (inactive),38.4 µM (inactive),54 µM (inactive),19.5 µM (inactive),31.2 µM (inactive),42.6 µM (inactive),,17.6 µM (inactive),27 µM (inactive),32.1 µM (inactive),> 100 µM (inactive),24.5 µM (inactive),64.6 µM (inactive),> 100 µM (inactive),53.1 µM (inactive)
COc1ccc(C)cc1Nc1nnc(-c2ccccc2N)s1,13.7 µM (inactive),19.5 µM (inactive),18.1 µM (inactive),2.41 µM (inactive),82.8 µM (inactive),> 100 µM (inactive),28.4 µM (inactive),31 µM (inactive),41.5 µM (inactive),37.8 µM (inactive),19.5 µM (inactive),18 µM (inactive),13.7 µM (inactive),28.6 µM (inactive),37.3 µM (inactive),51.8 µM (inactive),13.4 µM (inactive),30 µM (inactive),> 100 µM (inactive),40.6 µM (inactive)
CN(CC#N)C(=O)Cc1ccc([N+](=O)[O-])cc1,> 10 µM (inactive),> 10 µM (inactive),> 10 µM (inactive),> 10 µM (inactive),> 10 µM (inactive),> 10 µM (inactive),> 10 µM (inactive),> 10 µM (inactive),> 10 µM (inactive),> 10 µM (inactive),> 10 µM (inactive),> 10 µM (inactive),> 10 µM (inactive),> 10 µM (inactive),> 10 µM (inactive),> 10 µM (inactive),> 10 µM (inactive),> 10 µM (inactive),> 10 µM (inactive),> 10 µM (inactive)
CN(C)c1ccc(C2SCC(=O)N2c2ccc(Oc3ccc(Cl)cc3)c(Cl)c2)cc1 (stereo unspecified),,20.3 µM (inactive),15.2 µM (inactive),27.8 µM (inactive),18.1 µM (inactive),29 µM (inactive),20.3 µM (inactive),22.5 µM (inactive),20.2 µM (inactive),37.2 µM (inactive),20.4 µM (inactive),22.6 µM (inactive),19.1 µM (inactive),22.7 µM (inactive),36.6 µM (inactive),29.7 µM (inactive),27.5 µM (inactive),22.3 µM (inactive),13.8 µM (inactive),15.1 µM (inactive)
O=C1CCC2C(O)c3cc4c(cc3C(c3ccc5c(c3)OCO5)N12)OCO4 (stereo unspecified),> 100 µM (inactive),> 100 µM (inactive),> 100 µM (inactive),> 100 µM (inactive),80 µM (inactive),40 µM (inactive),> 100 µM (inactive),> 100 µM (inactive),> 100 µM (inactive),> 100 µM (inactive),> 100 µM (inactive),> 100 µM (inactive),> 100 µM (inactive),> 100 µM (inactive),> 100 µM (inactive),> 100 µM (inactive),> 100 µM (inactive),> 100 µM (inactive),19.2 µM (inactive),> 100 µM (inactive)
Nc1ncnc2c1ncn2C1OC(COP(=O)(O)CP(=O)(O)O)C(O)C1O (stereo unspecified),> 100 µM (inactive),> 100 µM (inactive),> 100 µM (inactive),> 100 µM (inactive),> 100 µM (inactive),> 100 µM (inactive),> 100 µM (inactive),,> 100 µM (inactive),> 100 µM (inactive),> 100 µM (inactive),> 100 µM (inactive),> 100 µM (inactive),> 100 µM (inactive),> 100 µM (inactive),> 100 µM (inactive),> 100 µM (inactive),> 100 µM (inactive),> 100 µM (inactive),> 100 µM (inactive)
CC(C)C[C@H](NC(=O)CCc1ccccc1)B(O)O,17.6 µM (inactive),2.15 µM (inactive),2.24 µM (inactive),3.04 µM (inactive),4.54 µM (inactive),,16.7 µM (inactive),19 µM (inactive),2.85 µM (inactive),6.03 µM (inactive),12.7 µM (inactive),23.2 µM (inactive),8.45 µM (inactive),2.67 µM (inactive),12.5 µM (inactive),5.79 µM (inactive),2.72 µM (inactive),13.7 µM (inactive),10.1 µM (inactive),11.7 µM (inactive)
